Measurements published in patent publication US20240025906A1 (NEURON23, INC., priority 2022, published 2024).

Columns and labels:
[1] = system: JAK1/TYK2 pSTAT5 (Tyr694/699) in THP-1 cell line; test: IFNa-stimulated JAK1/TYK2 pSTAT5 (Tyr694/699) inhibition cellular assay, AlphaLISA; assay type: cell-based; conditions: Homo sapiens; THP-1 cells, IFNa-stimulated, AlphaLISA (Assay B); read-out: Cellular_THP1_IFNa-pSTATS_TYK2
Method in brief: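 An eight-point 6-fold titration of compound (0.04–10000 nM final) is given to THP-1 cells for 1 h before 30 min of IFNa exposure. Phospho-STAT5 is read by AlphaLISA at 615 nm. IC50 values are derived by logistic regression with bottom set to 0 and Hill slope set to −1.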

TYK2 JH2 = biological target: T1, TYK2 JH2 (Homo sapiens, UniProt P29597); test: TYK2 JH2 binding assay (KINOMEscan KdELECT competitive binding); conditions: TYK2 JH2 domain, DiscoverX KINOMEscan KdELECT (Assay A); read-out: Biochemical TYK2_DiscoverX_JH2_BND_Kd
T1 construct: purchased DiscoverX (KINOMEscan KdELECT service); host or cells: E. coli BL21-derived (T7 phage display) or HEK-293
Method in brief: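 Test compounds were titrated in 11 three-fold steps against JH2 fragment captured on ligand-loaded magnetic beads, with 1 h incubation at room temperature and DMSO at 0.9%. Eluted kinase was quantified by qPCR, and Kd was fitted from the dose series.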

T1 sequence (P29597 589-875 limits assumed): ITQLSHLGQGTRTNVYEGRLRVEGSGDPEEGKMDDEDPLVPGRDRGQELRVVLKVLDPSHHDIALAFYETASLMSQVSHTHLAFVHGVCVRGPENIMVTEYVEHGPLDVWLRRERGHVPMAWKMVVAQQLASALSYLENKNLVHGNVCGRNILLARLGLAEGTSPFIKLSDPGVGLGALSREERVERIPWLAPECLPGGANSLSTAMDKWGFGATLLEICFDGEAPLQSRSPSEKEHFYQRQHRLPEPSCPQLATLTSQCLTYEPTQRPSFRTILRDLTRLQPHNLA

For `CNc1ncc(-c2nc3ccc(N4C[C@@H](C)O[C@@H](C)C4)cn3n2)c2cc(NC(=O)C3CC3)ncc12` [Example 479, N-(5-(6-((2R,6S)-2,6-dimethylmorpholino)-[1,2,4]triazolo[1,5-a]pyridin-2-yl)-8-(methylamino)-2,7-naphthyridin-3-yl)cyclopropanecarboxamide], the IC50 [1] was at most 0.5 µM and the Kd (TYK2 JH2) was at most 0.1 µM.
For `CNc1ncc(-c2nc3ccc(N4CCO[C@H](C(F)(F)F)C4)cn3n2)c2cc(NC(=O)C3CC3)ncc12` [Example 481, (S)-N-(8-(methylamino)-5-(6-(2-(trifluoromethyl)morpholino)-[1,2,4]triazolo[1,5-a]pyridin-2-yl)-2,7-naphthyridin-3-yl)cyclopropanecarboxamide], the IC50 [1] was at most 0.5 µM and the Kd (TYK2 JH2) was at most 0.1 µM.
`CNc1ncc(-c2nc3ccc(N4CCO[C@@H](C(F)(F)F)C4)cn3n2)c2cc(NC(=O)C3CC3)ncc12` [Example 482, (R)-N-(8-(methylamino)-5-(6-(2-(trifluoromethyl)morpholino)-[1,2,4]triazolo[1,5-a]pyridin-2-yl)-2,7-naphthyridin-3-yl)cyclopropanecarboxamide] showed an IC50 [1] of at most 0.5 µM and a Kd (TYK2 JH2) of at most 0.1 µM.
`CNc1ncc(-c2nc3ccc(N4CCC(F)(F)CC4)cn3n2)c2cc(NC(=O)C3CC3)ncc12` [Example 483, N-(5-(6-(4,4-difluoropiperidin-1-yl)-[1,2,4]triazolo[1,5-a]pyridin-2-yl)-8-(methylamino)-2,7-naphthyridin-3-yl)cyclopropanecarboxamide] was tested, and the IC50 [1] was at most 0.5 µM and the Kd (TYK2 JH2) was at most 0.1 µM.
Work on `CNc1ncc(-c2nc3ccc(N4CCC(F)CC4)cn3n2)c2cc(NC(=O)C3CC3)ncc12` [Example 484, N-(5-(6-(4-fluoropiperidin-1-yl)-[1,2,4]triazolo[1,5-a]pyridin-2-yl)-8-(methylamino)-2,7-naphthyridin-3-yl)cyclopropanecarboxamide] yielded an IC50 [1] of at most 0.5 µM and a Kd (TYK2 JH2) of at most 0.1 µM.
Compound `CNc1ncc(-c2nc3ccc(N4CCCC(F)(F)C4)cn3n2)c2cc(NC(=O)C3CC3)ncc12` [Example 485, N-(5-(6-(3,3-difluoropiperidin-1-yl)-[1,2,4]triazolo[1,5-a]pyridin-2-yl)-8-(methylamino)-2,7-naphthyridin-3-yl)cyclopropanecarboxamide] has an IC50 [1] of at most 0.5 µM and a Kd (TYK2 JH2) of at most 0.1 µM.
In the case of `CNc1ncc(-c2nc3ccc(N4CCC(F)C4)cn3n2)c2cc(NC(=O)C3CC3)ncc12` (stereo not shown) [Example 486, N-(5-(6-(3-fluoropyrrolidin-1-yl)-[1,2,4]triazolo[1,5-a]pyridin-2-yl)-8-(methylamino)-2,7-naphthyridin-3-yl)cyclopropanecarboxamide], the IC50 [1] is reported as at most 0.5 µM and the Kd (TYK2 JH2) is reported as at most 0.1 µM.
With `CNc1ncc(-c2nc3ccc(N4C5CCC4COC5)cn3n2)c2cc(NC(=O)C3CC3)ncc12` [Example 487, N-(5-(6-(3-oxa-8-azabicyclo[3.2.1]octan-8-yl)-[1,2,4]triazolo[1,5-a]pyridin-2-yl)-8-(methylamino)-2,7-naphthyridin-3-yl)cyclopropanecarboxamide] the IC50 [1] was at most 0.5 µM and the Kd (TYK2 JH2) was at most 0.1 µM.
Work on `CNc1ncc(-c2nc3ccc(N4C[C@@H]5C[C@H]4CO5)cn3n2)c2cc(NC(=O)C3CC3)ncc12` [Example 488, N-(5-(6-((1S,4S)-2-oxa-5-azabicyclo[2.2.1]heptan-5-yl)-[1,2,4]triazolo[1,5-a]pyridin-2-yl)-8-(methylamino)-2,7-naphthyridin-3-yl)cyclopropanecarboxamide] yielded an IC50 [1] of at most 0.5 µM and a Kd (TYK2 JH2) of at most 0.1 µM.
For `CNc1ncc(-c2nc3ccc(N4C[C@H]5C[C@@H]4CO5)cn3n2)c2cc(NC(=O)C3CC3)ncc12` [Example 489, N-(5-(6-((1R,4R)-2-oxa-5-azabicyclo[2.2.1]heptan-5-yl)-[1,2,4]triazolo[1,5-a]pyridin-2-yl)-8-(methylamino)-2,7-naphthyridin-3-yl)cyclopropanecarboxamide], the IC50 [1] was at most 0.5 µM and the Kd (TYK2 JH2) was at most 0.1 µM.
`CNc1ncc(-c2nc3cccc(Cl)n3n2)c2cc(NC(=O)C3CC3)ncc12` [Example 490, N-(5-(5-chloro-[1,2,4]triazolo[1,5-a]pyridin-2-yl)-8-(methylamino)-2,7-naphthyridin-3-yl)cyclopropanecarboxamide] was tested, and the IC50 [1] was at most 0.5 µM and the Kd (TYK2 JH2) was at most 0.1 µM.
`CNc1ncc(-c2nc3c(Cl)cccn3n2)c2cc(NC(=O)C3CC3)ncc12` [Example 491, N-(5-(8-chloro-[1,2,4]triazolo[1,5-a]pyridin-2-yl)-8-(methylamino)-2,7-naphthyridin-3-yl)cyclopropanecarboxamide] was tested, and the IC50 [1] was at most 0.5 µM and the Kd (TYK2 JH2) was at most 0.1 µM.
`CNc1ncc(-c2nc3cc(OC)ccn3n2)c2cc(NC(=O)C3CC3)ncc12` [Example 492, N-(5-(7-methoxy-[1,2,4]triazolo[1,5-a]pyridin-2-yl)-8-(methylamino)-2,7-naphthyridin-3-yl)cyclopropanecarboxamide] gave an IC50 [1] of at most 0.5 µM and a Kd (TYK2 JH2) of at most 0.1 µM.
With `CNc1ncc(-c2nc3ccc(C(C)(F)F)cn3n2)c2cc(NC(=O)C3CC3)ncc12` [Example 493, N-(5-(6-(1,1-difluoroethyl)-[1,2,4]triazolo[1,5-a]pyridin-2-yl)-8-(methylamino)-2,7-naphthyridin-3-yl)cyclopropanecarboxamide] the IC50 [1] was at most 0.5 µM and the Kd (TYK2 JH2) was at most 0.1 µM.
`CNc1ncc(-c2nc3ccc(OC(F)(F)F)cn3n2)c2cc(NC(=O)C3CC3)ncc12` [Example 493A, N-(8-(methylamino)-5-(6-(trifluoromethoxy)-[1,2,4]triazolo[1,5-a]pyridin-2-yl)-2,7-naphthyridin-3-yl)cyclopropanecarboxamide] gave an IC50 [1] of at most 0.5 µM and a Kd (TYK2 JH2) of at most 0.1 µM.
Compound `CNc1ncc(-c2nc3ccc(OC4CC4)cn3n2)c2cc(NC(=O)C3CC3)ncc12` [Example 494, N-(5-(6-cyclopropoxy-[1,2,4]triazolo[1,5-a]pyridin-2-yl)-8-(methylamino)-2,7-naphthyridin-3-yl)cyclopropanecarboxamide] has an IC50 [1] of at most 0.5 µM and a Kd (TYK2 JH2) of at most 0.1 µM.
`CNc1ncc(-c2nc3ccc(OCC4CC4)cn3n2)c2cc(NC(=O)C3CC3)ncc12` [Example 495, N-(5-(6-(cyclopropylmethoxy)-[1,2,4]triazolo[1,5-a]pyridin-2-yl)-8-(methylamino)-2,7-naphthyridin-3-yl)cyclopropanecarboxamide] was tested, and the IC50 [1] was at most 0.5 µM and the Kd (TYK2 JH2) was at most 0.1 µM.
`CNc1ncc(-c2nc3ccc(C(F)(F)F)cn3n2)c2cc(NC(=O)C3CC3)ncc12` [Example 496, N-(8-(methylamino)-5-(6-(trifluoromethyl)-[1,2,4]triazolo[1,5-a]pyridin-2-yl)-2,7-naphthyridin-3-yl)cyclopropanecarboxamide] gave an IC50 [1] of at most 0.5 µM and a Kd (TYK2 JH2) of at most 0.1 µM.
Compound `CNc1ncc(-c2nc3ccc(S(C)(=O)=O)cn3n2)c2cc(NC(=O)C3CC3)ncc12` [Example 497, N-(8-(methylamino)-5-(6-(methylsulfonyl)-[1,2,4]triazolo[1,5-a]pyridin-2-yl)-2,7-naphthyridin-3-yl)cyclopropanecarboxamide] has an IC50 [1] of at most 0.5 µM and a Kd (TYK2 JH2) of at most 0.1 µM.
Work on `CNc1ncc(-c2nc3ccc(OCC(C)(C)C#N)cn3n2)c2cc(NC(=O)C3CC3)ncc12` [Example 498, N-(5-(6-(2-cyano-2-methylpropoxy)-[1,2,4]triazolo[1,5-a]pyridin-2-yl)-8-(methylamino)-2,7-naphthyridin-3-yl)cyclopropanecarboxamide] yielded an IC50 [1] of at most 0.5 µM and a Kd (TYK2 JH2) of at most 0.1 µM.
With `CNc1ncc(-c2nc3cc(F)c(N4CCOC(C)C4)cn3n2)c2cc(NC(=O)C3CC3)ncc12` (stereo not shown) [Example 499, N-(5-(7-fluoro-6-(2-methylmorpholino)-[1,2,4]triazolo[1,5-a]pyridin-2-yl)-8-(methylamino)-2,7-naphthyridin-3-yl)cyclopropanecarboxamide] the IC50 [1] was at most 0.5 µM and the Kd (TYK2 JH2) was at most 0.1 µM.
For `CNc1ncc(-c2nc3ccc(OCc4ccccc4)cn3n2)c2cc(NC(=O)C3CC3)ncc12` [Example 500, N-(5-(6-(benzyloxy)-[1,2,4]triazolo[1,5-a]pyridin-2-yl)-8-(methylamino)-2,7-naphthyridin-3-yl)cyclopropanecarboxamide], the IC50 [1] was at most 0.5 µM and the Kd (TYK2 JH2) was at most 0.1 µM.
For `CNc1ncc(-c2nc3ccc(OCC(C)(C)O)cn3n2)c2cc(NC(=O)C3CC3)ncc12` [Example 501, N-(5-(6-(2-hydroxy-2-methylpropoxy)-[1,2,4]triazolo[1,5-a]pyridin-2-yl)-8-(methylamino)-2,7-naphthyridin-3-yl)cyclopropanecarboxamide], the IC50 [1] was at most 0.5 µM and the Kd (TYK2 JH2) was at most 0.1 µM.
In the case of `CNc1ncc(-c2nc3ccc(N4CC5CC(CN(C)C5)C4)cn3n2)c2cc(NC(=O)C3CC3)ncc12` [Example 502, N-(5-(6-(7-methyl-3,7-diazabicyclo[3.3.1]nonan-3-yl)-[1,2,4]triazolo[1,5-a]pyridin-2-yl)-8-(methylamino)-2,7-naphthyridin-3-yl)cyclopropanecarboxamide], the IC50 [1] is reported as at most 0.5 µM and the Kd (TYK2 JH2) is reported as at most 0.1 µM.
In the case of `CNc1ncc(-c2nc3ccc(C)cn3n2)c2cc(NC(=O)C3CC3)ncc12` [Example 503, N-(5-(6-methyl-[1,2,4]triazolo[1,5-a]pyridin-2-yl)-8-(methylamino)-2,7-naphthyridin-3-yl)cyclopropanecarboxamide], the IC50 [1] is reported as at most 0.5 µM and the Kd (TYK2 JH2) is reported as at most 0.1 µM.
Work on `CNc1ncc(-c2nc3ccc(N4CC5CN(C)CC(C4)O5)cn3n2)c2cc(NC(=O)C3CC3)ncc12` [Example 504, N-(5-(6-(7-methyl-9-oxa-3,7-diazabicyclo[3.3.1]nonan-3-yl)-[1,2,4]triazolo[1,5-a]pyridin-2-yl)-8-(methylamino)-2,7-naphthyridin-3-yl)cyclopropanecarboxamide] yielded an IC50 [1] of at most 0.5 µM and a Kd (TYK2 JH2) of at most 0.1 µM.
